Experimental data published in ChEMBL document CHEMBL4390668, “Discovery and Structural Optimization of Acridones as Broad-Spectrum Antimalarials” (J Med Chem, 2019).
The source made the active and inactive calls. The calls are words filed in the database; no cut-off is given here.

How the values were obtained:
[1] = Selectivity index, ratio of IC50 for human HepG2 cells to IC50 for chloroquine-sensitive Plasmodium falciparum D6 infected in human erythrocytes; assay type: toxicity, cell-based; settings: read-out: Ratio IC50
HepG2 = assay: Cytotoxicity against human HepG2 cells measured after 24 to 36 hrs by resazurin dye based fluorescence assay; assay type: cell-based
Plasmodium falciparum [2] = assay: Antimalarial activity against multidrug-resistant Plasmodium falciparum Dd2 infected in human erythrocytes by SYBR green 1-based fluorescence assay; assay type: functional, organism-based
Plasmodium falciparum [3] = assay: Antimalarial activity against atovaquone-resistant Plasmodium falciparum Tm90-C2B infected in human erythrocytes by SYBR green 1-based fluorescence assay; assay type: functional, organism-based
Plasmodium falciparum [4] = assay: Antimalarial activity against multidrug-resistant Plasmodium falciparum 7G8 infected in human erythrocytes by SYBR green 1-based fluorescence assay; assay type: functional, organism-based
Plasmodium berghei = assay: Antimalarial activity against luciferase-expressing Plasmodium berghei ANKA 676m1cl1 sporozoites infected in human HepG2A16 cells measured after 45 hrs by luciferase-luciferin based reporter assay; assay type: functional, organism-based; settings: ANKA 676m1cl1, HepG2A16, 45 h
Plasmodium falciparum [5] = assay: Antimalarial activity against chloroquine-sensitive Plasmodium falciparum D6 infected in human erythrocytes by SYBR green 1-based fluorescence assay; assay type: functional, organism-based
[6] = Half life in human liver microsomes at 1 uM by LC-MS analysis; assay type: ADME, Microsome
[7] = Half life in mouse liver microsomes at 1 uM by LC-MS analysis; assay type: ADME, Microsome
Plasmodium falciparum [8] = assay: Inhibition of Plasmodium falciparum cytochrome b-c1
Plasmodium falciparum [9] = assay: Antimalarial activity against drug-resistant Plasmodium falciparum Dd2 harboring V259L mutant infected in human erythrocytes after 72 hrs by SYBR green 1-based fluorescence assay; assay type: functional, organism-based; settings: Dd2, 72 h

Compound	selectivity ratio [1]	IC50 (HepG2) [nM]	IC50 (Plasmodium falciparum [2]) [nM]	IC50 (Plasmodium falciparum [3]) [nM]	IC50 (Plasmodium falciparum [4]) [nM]	IC50 (Plasmodium berghei) [nM]	IC50 (Plasmodium falciparum [5]) [nM]	half-life at 1 µM [6] [h]	half-life at 1 µM [7] [h]	inhibition (Plasmodium falciparum [8])	IC50 (Plasmodium falciparum [9]) [nM]
CCN(CC)CCOc1ccc2c(=O)c3cc(Cl)ccc3[nH]c2c1	> 473	> 100000	351	1160	304	221					
CCN(CC)CCOc1ccc2c(=O)c3ccccc3[nH]c2c1	72	96800	1190	2530		503	1350				
O=c1c2ccc(OCCCl)cc2[nH]c2ccc(Cl)c(Cl)c12	> 40000	> 100000	27	1380	45	183	2.5	> 1	> 1		
CCCN(CCC)CCOc1ccc2c(=O)c3c(Cl)cc(OC)cc3[nH]c2c1	> 308000	> 200000	4.2	81	6.2	2.9	0.65	0.117	0.167		
CN1CCCC1CCOc1ccc2c(=O)c3c(Cl)c(Cl)ccc3[nH]c2c1 (stereo unspecified)	992	47600	172 to 616	368	440		48			inactive	3110
CCN(CC)CCOc1ccc2c(=O)c3ccc(Br)cc3[nH]c2c1	> 1600	> 40000	34	968	37	100	25	> 1	> 1		
CCN(CC)CCCCCOc1ccc2c(=O)c3ccc(Cl)cc3[nH]c2c1	58	31300	511	1040		202	540	> 1	> 1		
CC(C)(C)NCCCCOc1ccc2c(=O)c3c(F)cc(F)cc3[nH]c2c1	1350	101000	265	> 2500	14	362	75	> 1	> 1		
CCCN(CCC)CCOc1ccc2[nH]c3cc(OC)cc(F)c3c(=O)c2c1	37700	26400	0.13	47	0.42	0.65	0.7				
O=c1c2ccc(OCCCCCl)cc2[nH]c2cc(F)cc(F)c12	> 100000	> 100000	0.16	40	0.5	17	0.12	0.233	0.1		
O=c1c2ccc(OCCCC(F)(F)F)cc2[nH]c2cc(F)cc(F)c12	> 200000	> 200000	0.033	40	0.5	48	0.027	> 1	0.983		
CCCN(CCC)CCOc1ccc2c(=O)c3ccc(Cl)cc3[nH]c2c1	16300	40600	11	1540	9.1	14.8	2.5	> 1	> 1		
CCN(CC)CCOc1ccc2c(=O)c3cc(F)c(OCCN(CC)CC)cc3[nH]c2c1	> 12500	> 200000	209	386	774		116				
O=c1c2ccc(Cl)cc2[nH]c2cc(OCCN3CCCC3)ccc12	48	25500	781	1500	959	456	529				
CCN(CC)CCCC(C)Nc1ccnc2cc(Cl)ccc12 (stereo unspecified) [CHLOROQUINE]										inactive	260
CCN(CC)CCOc1ccc2c(=O)c3cc(F)c(F)cc3[nH]c2c1	> 1370	> 200000	187	270	110		146				
CCN(CC)CCOc1ccc2c(=O)c3ccc(C(F)(F)F)cc3[nH]c2c1	47	38600	555	1390	1540		816				
CCCN(CCC)CCOc1ccc2[nH]c3cc(F)cc(OC)c3c(=O)c2c1	1590	55700	105	> 250	175		35				
